Counter-ions that a name gives are not always drawn.
| Compound | melting point [°C] |
| --- | --- |
| Cn1ncnc1COc1nn2c(-c3ccccc3F)nncc2c1-c1cccc(N)c1 (as salt: hemisulfate) [Example 94, 3-(3-Aminophenyl)-7-(2-fluorophenyl)-2-(2-methyl-2H-[1,2,4]triazol-3-ylmethoxy)pyrazolo[1,5-d][1,2,4]triazine] | 196 to 200 |
| Cn1ncnc1COc1nn2c(-c3ccccc3F)nncc2c1-c1ccccc1F [Example 2, 3-(2-Fluorophenyl)-7-(2-fluorophenyl)-2-(2-methyl-2H-[1,2,4]triazol-3-ylmethoxy)pyrazolo[1,5-d][1,2,4]triazine] | 169 |
| Cn1ncnc1COc1nn2c(-c3ccccc3F)nncc2c1-c1cccc(F)c1 [Example 3, 3-(3-Fluorophenyl)-7-(2-fluorophenyl)-2-(2-methyl-2H-[1,2,4]triazol-3-ylmethoxy)pyrazolo[1,5-d][1,2,4]triazine] | 176 |
| Cn1ncnc1COc1nn2c(-c3ccccc3F)nncc2c1-c1ccc(F)cc1 [Example 4, 3-(4-Fluorophenyl)-7-(2-fluorophenyl)-2-(2-methyl-2H-[1,2,4]triazol-3-ylmethoxy)pyrazolo[1,5-d][1,2,4]triazine] | 192 |
| CCn1ncnc1COc1nn2c(-c3ccccc3F)nncc2c1-c1ccccc1 [Example 5, 2-(2-Ethyl-2H-[1,2,4]triazol-3-ylmethoxy)-7-(2-fluorophenyl)-3-phenylpyrazolo[1,5-d][1,2,4]triazine] | 171 to 173 |
| Cn1ncnc1COc1nn2c(-c3cccc(F)c3)nncc2c1-c1ccccc1 [Example 7, 7-(3-Fluorophenyl)-2-(2-methyl-2H-[1,2,4]triazol-3-ylmethoxy)-3-phenylpyrazolo[1,5-d][1,2,4]triazine] | 198 |
| Fc1ccccc1-c1nncc2c(-c3ccccc3)c(OCc3ccccn3)nn12 [Example 8, 7-(2-Fluorophenyl)-3-phenyl-2-(pyridin-2-ylmethoxy)pyrazolo[1,5-d][1,2,4]triazine] | 182 to 183 |
| Cn1ncnc1COc1nn2c(-c3c(F)cccc3F)nncc2c1-c1ccccc1 [Example 10, 7-(2,6-Difluorophenyl)-2-(2-methyl-2H-[1,2,4]triazol-3-ylmethoxy)-3-phenylpyrazolo[1,5-d][1,2,4]triazine] | 179 |
| Cn1ncnc1COc1nn2c(-c3cccs3)nncc2c1-c1ccccc1 [Example 11, 2-(2-Methyl-2H-[1,2,4]triazol-3-ylmethoxy)-3-phenyl-7-(thien-2-yl) pyrazolo[1,5-d][1,2,4]triazine] | 209 |
| Cn1ncnc1COc1nn2c(-c3ccccc3)nncc2c1-c1ccccc1 [Example 12, 3,7-Diphenyl-2-(2-methyl-2H-[1,2,4]triazol-3-ylmethoxy)pyrazolo[1,5-d][1,2,4]triazine] | 185 |
| Cn1ncnc1COc1nn2c(-c3cc(F)ccc3F)nncc2c1-c1ccccc1 [Example 13, 7-(2,5-Difluorophenyl)-2-(2-methyl-2H-[1,2,4]triazol-3-ylmethoxy)-3-phenylpyrazolo[1,5-d][1,2,4]triazine] | 199 |
| Cn1ncnc1COc1nn2c(-c3ccccc3F)nncc2c1-c1cc(F)ccc1F [Example 14, 3-(2,5-Difluorophenyl)-7-(2-fluorophenyl)-2-(2-methyl-2H-[1,2,4]triazol-3-ylmethoxy)Pyrazolo[1,5-d][1,2,4]triazine] | 164 to 165 |
| Cn1ncnc1COc1nn2c(-c3ccccc3F)nncc2c1-c1c(F)cccc1F [Example 15, 3-(2,6-Difluorophenyl)-7-(2-fluorophenyl)-2-(2-methyl-2H-[1,2,4]triazol-3-ylmethoxy)pyrazolo[1,5-d][1,2,4]triazine] | 196 |
| Cn1ncnc1COc1nn2c(-c3ccccc3F)nncc2c1-c1cccc(F)c1F [Example 16, 3-(2,3-Difluorophenyl)-7-(2-fluorophenyl)2-(2-methyl-2H-[1,2,4]triazol-3-ylmethoxy)pyrazolo[1,5-d][1,2,4]triazine] | 176 |
| Cn1ncnc1COc1nn2c(-c3ccccc3F)nncc2c1-c1cccc(C(F)(F)F)c1 [Example 18, 7-(2-Fluorophenyl)-2-(2-methyl-2H-[1,2,4]triazol-3-ylmethoxy)-3-[3-(trifluoromethyl)phenyl]pyrazolo[1,5-d][1,2,4]triazine] | 152 to 155 |
| Cn1ncnc1COc1nn2c(-c3ccccc3F)nncc2c1-c1cc(F)cc(F)c1 [Example 20, 3-(3,5-Difluorophenyl)-7-(2-fluorophenyl)-2-(2-methyl-2H-[1,2,4]triazol-3-ylmethoxy)pyrazolo[1,5-d][1,2,4]triazine] | 171 to 173 |
| CCn1ncnc1COc1nn2c(-c3cc(F)ccc3F)nncc2c1C(C)(C)C [Example 22, 7-(2,5-Difluorophenyl)-3-(1,1-dimethylethyl)-2-(2-ethyl-2H-[1,2,4]triazol-3-ylmethoxy)pyrazolo[1,5-d][1,2,4]triazine] | 108 |
| CCn1ncnc1COc1nn2c(-c3c(F)ccc(F)c3F)nncc2c1C(C)(C)C [Example 29, 3-(1,1-Dimethylethyl)-2-(2-ethyl-2H-[1,2,4]triazol-3-ylmethoxy)-7-(2,3,6-trifluorophenyl)pyrazolo[1,5-d][1,2,4]triazine] | 42 |
| CC(C)n1ncnc1COc1nn2c(-c3cc(F)ccc3F)nncc2c1C(C)(C)C [Example 30, 7-(2,5-Difluorophenyl)-3-(1,1-dimethylethyl)-2-(2-isopropyl-2H-[1,2,4]triazol-3-ylmethoxy)pyrazolo[1,5-d][1,2,4]triazine] | 163 |
| Cn1ncnc1COc1nn2c(-c3cnccn3)nncc2c1-c1ccccc1F [Example 31, 3-(2-Fluorophenyl)-2-(2-methyl-2H-[1,2,4]triazol-3-ylmethoxy)-7-(pyrazin-2-yl)pyrazolo[1,5-d][1,2,4]triazine] | 179 to 180 |
| Cn1ncnc1COc1nn2c(-c3ccco3)nncc2c1-c1ccccc1F [Example 36, 3-(2-Fluorophenyl)-7-(furan-2-yl)-2-(2-methyl-2H-[1,2,4]triazol-3-ylmethoxy)pyrazolo[1,5-d][1,2,4]triazine] | 204 to 206 |
| CCn1ncnc1COc1nn2c(-c3ccc(F)cc3)nncc2c1C(C)(C)C [Example 38, 3-(1,1-Dimethylethyl)-2-(2-ethyl-2H-[1,2,4]triazol-3-ylmethoxy)-7-(4-fluorophenyl)pyrazolo[1,5-d][1,2,4]triazine] | 190 |
| CCCn1ncnc1COc1nn2c(-c3ccc(F)cc3)nncc2c1C(C)(C)C [Example 39, 3-(1,1-Dimethylethyl)-7-(4-fluorophenyl)-2-(2-propyl-2H-[1,2,4]triazol-3-ylmethoxy)pyrazolo[1,5-d][1,2,4]triazine] | 154 |
| Cn1ncnc1COc1nn2c(-c3ccc(F)cc3)nncc2c1-c1ccccc1F [Example 41, 3-(2-Fluorophenyl)-7-(4-fluorophenyl)-2-(2-methyl-2H-[1,2,4]-triazol-3-ylmethoxy)pyrazolo[1,5-d][1,2,4]triazine] | 191 |

Now from value to molecule:

| melting point [°C] | Compound |
| --- | --- |
| 176 | Cn1ncnc1COc1nn2c(-c3ccccc3F)nncc2c1-c1ccccc1 [Example 1, 7-(2-Fluorophenyl)-2-(2-methyl-2H-[1,2,4]triazol-3-ylmethoxy)-3-phenylpyrazolo[1,5-d][1,2,4]triazine] |
| 215 to 219 | Cn1ncnc1COc1nn2c(-c3ccccc3F)nncc2c1Br [Example 17, 3-Bromo-7-(2-fluorophenyl)-2-(2-methyl-2H-[1,2,4]triazol-3-ylmethoxy)pyrazolo[1,5-d][1,2,4]triazine] |
| 144 | Cn1ncnc1COc1nn2c(-c3cc(F)ccc3F)nncc2c1C(C)(C)C [Example 21, 7-(2,5-Difluorophenyl)-3-(1,1-dimethylethyl)-2-(2-methyl-2H-[1,2,4]triazol-3-ylmethoxy)pyrazolo[1,5-d][1,2,4]triazine] |
| 128 | Cn1ncnc1COc1nn2c(-c3ccccc3F)nncc2c1C(C)(C)C [Example 24, 3-(1,1-Dimethylethyl)-7-(2-fluorophenyl)-2-(2-methyl-2H-[1,2,4]triazol-3-ylmethoxy)pyrazolo[1,5-d][1,2,4]triazine] |
| 105 | CCn1ncnc1COc1nn2c(-c3ccccc3F)nncc2c1C(C)(C)C [Example 25, 3-(1,1-Dimethylethyl)-2-(2-ethyl-2H-[1,2,4]triazol-3-ylmethoxy)-7-(2-fluorophenyl)pyrazolo[1,5-d][1,2,4]triazine] |
| 93 | CCCn1ncnc1COc1nn2c(-c3ccccc3F)nncc2c1C(C)(C)C [Example 26, 3-(1,1-Dimethylethyl)-7-(2-fluorophenyl)-2-(2-propyl-2H-[1,2,4]triazol-3-ylmethoxy)pyrazolo[1,5-d][1,2,4]triazine] |
| 85 to 86 | CCn1ncnc1COc1nn2c(-c3cc(F)ccc3F)nncc2c1C(C)(C)CC [Example 33, 7-(2,5-Difluorophenyl)-3-(1,1-dimethylpropyl)-2-(2-ethyl-2H-[1,2,4]triazol-3-ylmethoxy)pyrazolo[1,5-d][1,2,4]triazine] |
| 89 to 91 | CCC(C)(C)c1c(OCc2ncnn2C)nn2c(-c3ccccc3F)nncc12 [Example 34, 3-(1,1-Dimethylpropyl)-7-(2-fluorophenyl)-2-(2-methyl-2H-[1,2,4]triazol-3-ylmethoxy)pyrazolo[1,5-d][1,2,4]triazine] |
| 181 to 183 | Cn1ncnc1COc1nn2c(-c3ccccc3F)nncc2c1-c1cccnc1 [Example 35, 7-(2-Fluorophenyl)-2-(2-methyl-2H-[1,2,4]triazol-3-ylmethoxy)-3-(pyridin-3-yl)pyrazolo[1,5-d][1,2,4]triazine] |
| 197 | Cn1ncnc1COc1nn2c(-c3ccc(F)cc3)nncc2c1C(C)(C)C [Example 37, 3-(1,1-Dimethylethyl)-7-(4-fluorophenyl)-2-(2-methyl-2H-[1,2,4]triazol-3-ylmethoxy)pyrazolo[1,5-d][1,2,4]triazine] |
| 89 to 92 | CCn1ncnc1COc1nn2c(-c3ccccc3F)nncc2c1C(C)(C)CC [Example 40, 3-(1,1-Dimethylpropyl)-2-(2-ethyl-2H-[1,2,4]triazol-3-ylmethoxy)-7-(2-fluorophenyl)pyrazolo[1,5-d][1,2,4]triazine] |
